In PubChem BioAssay (NCI):
Several values for one entry are separate records, joined by “and”; a condition that tells them apart may be missing. Equal values may be shown once.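 Each compound was tested at five concentrations against cells in 96-well plates for 48 hours. GI50 marks 50% less growth. TGI is the concentration that stops growth completely.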 Activity calls are given as the source filed them. No stated cut-off is given here; in the data, active means GI50 below about 0.43 µM; inactive means the rest.

Columns and labels:
Assay in all cases: NCI tumour cell line growth inhibition, 48 h
[1] = system: A549 NSCLC
[2] = system: ACHN renal
[3] = system: CAKI-1 renal
[4] = system: CCRF-CEM leukemia
[5] = system: COLO 205 colon
[6] = system: DLD-1 colon
[7] = system: DU-145 prostate
[8] = system: EKVX NSCLC
[9] = system: HOP-92 NSCLC
[10] = system: HS 578T breast
[11] = system: HT29 colon
[12] = system: IGROV1 ovarian
[13] = system: K-562 leukemia
[14] = system: KM12 colon
[15] = system: KM20L2 colon
[16] = system: MCF7 breast
[17] = system: MDA-MB-231 breast
[18] = system: MDA-MB-435
[19] = system: MOLT-4 leukemia
[20] = system: NCI-H226 lung
[21] = system: NCI-H23 lung
[22] = system: NCI-H460 lung
[23] = system: NCI/ADR-RES ovarian
[24] = system: OVCAR-3 ovarian
[25] = system: OVCAR-5 ovarian
[26] = system: OVCAR-8 ovarian
[27] = system: PC-3 prostate
[28] = system: SF-268 CNS
[29] = system: SF-295 CNS
[30] = system: SF-539 CNS
[31] = system: SK-MEL-28 melanoma
[32] = system: SN12C renal
[33] = system: SNB-19 CNS
[34] = system: SNB-78 CNS
[35] = system: SW-620 colon
[36] = system: T-47D breast
[37] = system: U251 CNS
[38] = system: UACC-257 melanoma
[39] = system: UO-31 renal
[40] = system: 786-0 renal
[41] = system: A498 renal
[42] = system: BT-549 breast
[43] = system: HCC-2998 colon
[44] = system: HCT-116 colon
[45] = system: HCT-15 colon
[46] = system: HL-60(TB) leukemia
[47] = system: HOP-62 NSCLC
[48] = system: LOX IMVI melanoma
[49] = system: M14 melanoma
[50] = system: MALME-3M melanoma
[51] = system: MDA-N
[52] = system: NCI-H522 lung
[53] = system: OVCAR-4 ovarian
[54] = system: RPMI-8226 leukemia
[55] = system: RXF 393 renal
[56] = system: SK-MEL-2 melanoma
[57] = system: SK-MEL-5 melanoma
[58] = system: SK-OV-3 ovarian
[59] = system: SNB-75 CNS
[60] = system: SR leukemia
[61] = system: TK-10 renal
[62] = system: UACC-62 melanoma

SMILES: OCCNCN(CNCCO)c1nc(N(CNCCO)CNCCO)nc(N(CNCCO)CNCCO)n1
- TGI [1]: 0.257 µM
- outcome [1]: inactive
- outcome [2]: inactive
- outcome [3]: inactive
- TGI [4]: 0.0602 µM
- TGI [5]: 0.0877 µM
- TGI [6]: 0.405 µM
- outcome [7]: inactive
- outcome [8]: inactive
- outcome [9]: inactive
- outcome [10]: inactive
- outcome [11]: inactive
- outcome [12]: inactive
- TGI [13]: 0.15 µM
- TGI [14]: 0.55 µM
- TGI [15]: 0.322 µM
- outcome [16]: inactive
- outcome [17]: inactive
- outcome [18]: inactive
- TGI [19]: 0.205 µM
- outcome [19]: inactive
- outcome [20]: inactive
- outcome [21]: inactive
- TGI [22]: 0.354 µM
- outcome [22]: inactive
- outcome [23]: inactive
- outcome [24]: inactive
- outcome [25]: inactive
- outcome [26]: inactive
- outcome [27]: inactive
- outcome [28]: inactive
- TGI [29]: 0.147 µM
- outcome [29]: inactive
- outcome [30]: inactive
- outcome [31]: inactive
- outcome [32]: inactive
- outcome [33]: inactive
- TGI [34]: 0.203 µM
- outcome [35]: inactive
- outcome [36]: inactive
- outcome [37]: inactive
- outcome [38]: inactive
- TGI [39]: 0.25 µM

SMILES: O=C(NNC(=O)c1ccccc1S)c1ccccc1S
- GI50 [40]: 13.4 µM
- TGI [40]: 25 µM and > 100 µM
- TGI [41]: > 100 µM
- GI50 [1]: 28.7 µM
- TGI [1]: 25 µM and > 100 µM
- TGI [2]: 25 µM and > 100 µM
- GI50 [42]: 16.7 µM
- TGI [42]: 25 µM and > 100 µM
- GI50 [3]: 5.51 µM
- TGI [3]: 25 µM and > 100 µM
- GI50 [4]: 1.85 µM
- TGI [4]: 25 µM and 12.2 µM
- GI50 [5]: 28.2 µM
- TGI [5]: 25 µM and > 100 µM
- TGI [7]: 25 µM and > 100 µM
- GI50 [8]: 52.2 µM
- TGI [8]: 25 µM and > 100 µM
- TGI [43]: > 100 µM
- GI50 [44]: 8.17 µM
- TGI [44]: 25 µM and 82.1 µM
- GI50 [45]: 7.97 µM
- TGI [45]: 25 µM and > 100 µM
- GI50 [46]: 3.12 µM
- TGI [46]: 24.6 µM and 17.6 µM
- GI50 [47]: 21 µM
- TGI [47]: 25 µM and 68.3 µM
- GI50 [9]: > 100 µM
- TGI [9]: > 100 µM
- TGI [10]: > 100 µM
- GI50 [11]: 31.3 µM
- TGI [11]: 25 µM and > 100 µM
- GI50 [12]: 16.9 µM
- TGI [12]: 22.5 µM and > 100 µM
- GI50 [13]: 5.4 µM
- TGI [13]: 25 µM and > 100 µM
- GI50 [14]: 37.3 µM
- TGI [14]: 25 µM and > 100 µM
- TGI [48]: 25 µM and > 100 µM
- GI50 [49]: 23.3 µM
- TGI [49]: 25 µM and > 100 µM
- GI50 [50]: 54.3 µM
- TGI [50]: 25 µM and > 100 µM
- TGI [16]: > 100 µM
- TGI [17]: > 100 µM
- GI50 [18]: 33.2 µM
- TGI [18]: 25 µM and > 100 µM
- GI50 [51]: 22.3 µM
- TGI [51]: 25 µM and > 100 µM
- GI50 [19]: 3.58 µM
- TGI [19]: 25 µM and > 100 µM
- GI50 [20]: 25.2 µM
- TGI [20]: 25 µM and > 100 µM
- GI50 [21]: 20.8 µM
- TGI [21]: 25 µM and > 100 µM
- GI50 [22]: 0.123 µM
- TGI [22]: 25 µM and > 100 µM
- GI50 [52]: 5.34 µM
- GI50 [23]: 25.9 µM
- TGI [23]: 25 µM and > 100 µM
- GI50 [24]: 16.1 µM
- TGI [24]: 25 µM and 65.4 µM
- GI50 [53]: 28 µM
- TGI [53]: 25 µM and > 100 µM
- GI50 [25]: 68.2 µM
- TGI [25]: 25 µM and > 100 µM
- TGI [26]: 25 µM and > 100 µM
- TGI [27]: > 100 µM
- GI50 [54]: 9.24 µM
- TGI [54]: 25 µM and > 100 µM
- GI50 [55]: 8.74 µM
- TGI [55]: 25 µM and > 100 µM
- GI50 [28]: 16.6 µM
- TGI [28]: 25 µM and > 100 µM
- GI50 [29]: 21.8 µM
- TGI [29]: 25 µM and > 100 µM
- GI50 [30]: 37.1 µM
- TGI [30]: 25 µM and > 100 µM
- TGI [56]: > 100 µM
- GI50 [31]: 35.3 µM
- TGI [31]: > 100 µM
- GI50 [57]: 34.2 µM
- TGI [57]: 25 µM and > 100 µM
- GI50 [58]: 64.8 µM
- TGI [58]: > 100 µM
- GI50 [32]: 25.9 µM
- TGI [32]: 25 µM and > 100 µM
- GI50 [33]: 59.9 µM
- TGI [33]: 25 µM and > 100 µM
- GI50 [59]: 27.9 µM
- TGI [59]: 25 µM and > 100 µM
- GI50 [60]: 3.37 µM
- TGI [60]: 25 µM and 15.4 µM
- GI50 [35]: 8.09 µM
- TGI [35]: 25 µM and > 100 µM
- GI50 [36]: 6.88 µM
- TGI [36]: 25 µM and > 100 µM
- GI50 [61]: > 100 µM
- TGI [61]: > 100 µM
- GI50 [37]: 31.8 µM
- TGI [37]: 25 µM and > 100 µM
- GI50 [38]: 2.57 µM
- TGI [38]: 25 µM and > 100 µM
- GI50 [62]: 27.5 µM
- TGI [62]: 25 µM and > 100 µM
- TGI [39]: > 100 µM
